Measurements from patent US20150239889A1, “PYRAZOLOPYRIMIDINE COMPOUND” (MITSUBISHI TANABE PHARMA CORPORATION, priority 2012, published 2015).

Columns and labels:
human HIF-PHD2 = biological target: T1, human HIF-PHD2 (Homo sapiens, UniProt Q9GZT9); assay: HIF-PHD inhibition assay (fluorescence polarization), human HIF-PHD2; assay type: biochemical; conditions: 2-oxoglutaric acid 3.33 μmol/L
T1 construct: purchased CrystalGenomics Ltd
Description: (§1) The activity of the test compound to inhibit human HIF-PHD2 and human HIF-PHD3 was determined.
(§2) The value of enzyme activity was calculated by subtracting the value of fluorescence polarization before addition of the enzyme from the value of fluorescence polarization after addition of enzyme (mP value).
(§3) FAM: 5′-fluoresceinamide ACA: aminocaproic acid

human HIF-PHD3 = biological target: T2, human HIF-PHD3 (Homo sapiens, UniProt Q9H6Z9); assay: HIF-PHD inhibition assay (fluorescence polarization), human HIF-PHD3; assay type: biochemical; conditions: 2-oxoglutaric acid 166 μmol/L
T2 construct: purchased CrystalGenomics Ltd
T2 sequence (Q9H6Z9 whole entry): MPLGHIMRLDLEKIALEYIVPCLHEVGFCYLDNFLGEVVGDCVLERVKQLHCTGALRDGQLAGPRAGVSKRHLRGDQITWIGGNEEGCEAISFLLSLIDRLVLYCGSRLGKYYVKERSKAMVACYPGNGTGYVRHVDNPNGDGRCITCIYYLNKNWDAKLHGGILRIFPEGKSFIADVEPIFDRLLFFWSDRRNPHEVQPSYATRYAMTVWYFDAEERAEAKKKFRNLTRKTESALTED
Description: as §1, §2, §3

T1 sequence (Q9GZT9 2-426 limits assumed): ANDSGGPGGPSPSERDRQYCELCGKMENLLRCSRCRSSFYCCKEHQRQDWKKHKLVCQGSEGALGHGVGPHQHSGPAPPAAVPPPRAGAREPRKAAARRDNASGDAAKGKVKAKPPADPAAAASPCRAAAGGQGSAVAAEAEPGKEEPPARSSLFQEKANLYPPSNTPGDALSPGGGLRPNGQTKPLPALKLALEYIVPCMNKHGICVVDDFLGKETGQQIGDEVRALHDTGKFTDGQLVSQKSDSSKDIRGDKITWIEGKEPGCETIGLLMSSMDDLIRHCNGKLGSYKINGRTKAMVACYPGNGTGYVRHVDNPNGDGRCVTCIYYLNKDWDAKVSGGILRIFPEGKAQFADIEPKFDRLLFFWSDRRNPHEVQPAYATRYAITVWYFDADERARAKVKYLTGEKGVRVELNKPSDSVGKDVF

Structure (SMILES)	IC50 (human HIF-PHD2)	IC50 (human HIF-PHD3)
CC(C)(C)[C@H]1CC[C@H](Cn2nc(Cl)c3nc(-n4cc(C(=O)O)cn4)nc(O)c32)CC1 [Example 225]	22 nM	150 nM
Cn1nc(Cc2ccccc2)c2nc(-n3cc(C(=O)O)cn3)nc(O)c21 [Example 503]	> 300 nM	> 3000 nM
O=C(O)c1cnn(-c2nc(O)c3c(n2)c(F)nn3C2CCCCCCC2)c1 [Example 482]	43 nM	1300 nM
Cc1ccc2cc(Cn3ncc4nc(-n5cc(C(=O)O)cn5)nc(O)c43)ccc2c1 [Example 33]	10 nM	200 nM
O=C(O)c1cnn(-c2nc(O)c3c(cnn3Cc3ccc(N4CCC(C(F)(F)F)CC4)cc3)n2)c1 [Example 422]	38 nM	420 nM
CC1CCCC(n2ncc3nc(-n4cc(C(=O)O)cn4)nc(O)c32)C1 (centres unmarked) [Example 398]	52 nM	1400 nM
Cc1c(OCCCn2ncc3nc(-n4cc(C(=O)O)cn4)nc(O)c32)ccc2c1CCCC2 [Example 190]	14 nM	260 nM
CC1(C)CCCC1n1ncc2nc(-n3cc(C(=O)O)cn3)nc(O)c21 (single isomer, unassigned) [Example 418]	83 nM	910 nM
C[C@@H](c1cccc(F)c1)n1nc(C2CC2)c2nc(-n3cc(C(=O)O)cn3)nc(O)c21 [Example 458]	> 300 nM	1100 nM
CC(C)[C@H]1CC[C@H](C)[C@H](n2ncc3nc(-n4cc(C(=O)O)cn4)nc(O)c32)C1 [Example 405]	110 nM	460 nM
O=C(O)c1cnn(-c2nc(O)c3c(cnn3CC3CCC(F)(F)CC3)n2)c1 [Example 143]	15 nM	1200 nM
CC(C)(C)Cn1nc(F)c2nc(-n3cc(C(=O)O)cn3)nc(O)c21 [Example 499]	130 nM	760 nM
C[C@H](C1CCC(C)(C)CC1)n1ncc2nc(-n3cc(C(=O)O)cn3)nc(O)c21 [Example 383]	110 nM	570 nM
C[C@H]1CC[C@@H](n2ncc3nc(-n4cc(C(=O)O)cn4)nc(O)c32)CC1 [Example 385]	130 nM	380 nM
O=C(O)c1cnn(-c2nc(O)c3c(cnn3CCCOc3ccc(Cl)cc3)n2)c1 [Example 184]	10 nM	360 nM
C[C@@H](C1CCN(c2ccc(Cl)cc2)CC1)n1ncc2nc(-n3cc(C(=O)O)cn3)nc(O)c21 [Example 432]	17 nM	270 nM
Cc1nn(CC2CCCC2)c2c(O)nc(-n3cc(C(=O)O)cn3)nc12 [Example 229]	50 nM	2800 nM
CC1(C)CCCC(n2ncc3nc(-n4cc(C(=O)O)cn4)nc(O)c32)C1 (single isomer, unassigned) [Example 412]	43 nM	590 nM
Cc1cc(Cl)ccc1-c1ccc(Cn2ncc3nc(-n4cc(C(=O)O)cn4)nc(O)c32)cc1 [Example 71]	16 nM	110 nM
COc1cc(-c2ccccc2F)ccc1Cn1ncc2nc(-n3cc(C(=O)O)cn3)nc(O)c21 [Example 90]	20 nM	36 nM
CC1CC(n2ncc3nc(-n4cc(C(=O)O)cn4)nc(O)c32)CC(C)(C)C1 (centres unmarked) [Example 409]	49 nM	420 nM
C[C@@H](C1CCN(c2ccc(OC(F)(F)F)cc2)CC1)n1ncc2nc(-n3cc(C(=O)O)cn3)nc(O)c21 [Example 433]	31 nM	540 nM
O=C(O)c1cnn(-c2nc(O)c3c(cnn3Cc3ccc(-c4cccc(Cl)c4Cl)cc3)n2)c1 [Example 75]	20 nM	120 nM
O=C(O)c1cnn(-c2nc(O)c3c(n2)c(F)nn3CC2CCCCCC2)c1 [Example 464]	17 nM	440 nM
C[C@@H](C1CCC(C)(C)CC1)n1ncc2nc(-n3cc(C(=O)O)cn3)nc(O)c21 [Example 382]	15 nM	410 nM
C[C@H]1CC[C@H](n2nc(F)c3nc(-n4cc(C(=O)O)cn4)nc(O)c32)CC1 [Example 479]	42 nM	260 nM
CCC(CC)Cn1ncc2nc(-n3cc(C(=O)O)cn3)nc(O)c21 [Example 494]	89 nM	870 nM
O=C(O)c1cnn(-c2nc(O)c3c(cnn3[C@H]3CCN(c4ccc(C(F)(F)F)cc4)C3)n2)c1 [Example 437]	2.5 nM	180 nM
C[C@H](C1CCCCC1)n1nc(F)c2nc(-n3cc(C(=O)O)cn3)nc(O)c21 [Example 469]	76 nM	1200 nM

Further lines, results first:

IC50 (human HIF-PHD2)	IC50 (human HIF-PHD3)	Structure (SMILES)
23 nM	340 nM	CC(C)C(c1ccc(F)c(F)c1)n1ncc2nc(-n3cc(C(=O)O)cn3)nc(O)c21 (single isomer, unassigned) [Example 359]
79 nM	700 nM	Cc1cc(F)cc(C(C)n2ncc3nc(-n4cc(C(=O)O)cn4)nc(O)c32)c1 (centres unmarked) [Example 299]
77 nM	390 nM	CC(C)C(c1ccc(C(F)(F)F)cc1)n1ncc2nc(-n3cc(C(=O)O)cn3)nc(O)c21 (single isomer, unassigned) [Example 357]
120 nM	540 nM	CC(C)C(c1ccc(F)cc1)n1ncc2nc(-n3cc(C(=O)O)cn3)nc(O)c21 (single isomer, unassigned) [Example 355]
18 nM	480 nM	CC(c1cc(Cl)c(Cl)s1)n1ncc2nc(-n3cc(C(=O)O)cn3)nc(O)c21 (single isomer, unassigned) [Example 320]
94 nM	680 nM	Cc1cc(C)cc(C(C)n2ncc3nc(-n4cc(C(=O)O)cn4)nc(O)c32)c1 (centres unmarked) [Example 309]
55 nM	470 nM	C[C@@H](c1ccc(F)c(F)c1)n1ncc2nc(-n3cc(C(=O)O)cn3)nc(O)c21 [Example 251]
64 nM	580 nM	Cc1nn([C@@H](C)c2ccc(F)c(F)c2)c2c(O)nc(-n3cc(C(=O)O)cn3)nc12 [Example 450]
61 nM	610 nM	Cc1ccc([C@@H](C)n2ncc3nc(-n4cc(C(=O)O)cn4)nc(O)c32)cc1C(F)(F)F [Example 277]
45 nM	880 nM	CC(c1ccc(Cl)c(C(F)(F)F)c1)n1ncc2nc(-n3cc(C(=O)O)cn3)nc(O)c21 (centres unmarked) [Example 315]
48 nM	950 nM	COc1ccc([C@H](C)n2ncc3nc(-n4cc(C(=O)O)cn4)nc(O)c32)cc1 [Example 260]
60 nM	530 nM	CCC(c1ccc(C)cc1)n1ncc2nc(-n3cc(C(=O)O)cn3)nc(O)c21 (centres unmarked) [Example 328]
38 nM	420 nM	C[C@@H](c1cccc(C(F)(F)F)c1)n1ncc2nc(-n3cc(C(=O)O)cn3)nc(O)c21 [Example 258]
36 nM	580 nM	CCC(c1ccc(F)c(F)c1)n1ncc2nc(-n3cc(C(=O)O)cn3)nc(O)c21 (centres unmarked) [Example 330]
57 nM	1300 nM	CC(C)C(c1cccc(C(F)(F)F)c1)n1ncc2nc(-n3cc(C(=O)O)cn3)nc(O)c21 (single isomer, unassigned) [Example 363]
29 nM	470 nM	CC(c1ccc(Cl)c(C(F)(F)F)c1)n1ncc2nc(-n3cc(C(=O)O)cn3)nc(O)c21 (single isomer, unassigned) [Example 316]

IC50 (human HIF-PHD2)	IC50 (human HIF-PHD3)	Structure (SMILES)
180 nM	480 nM	C[C@@H](c1cc(C(F)(F)F)ccc1F)n1ncc2nc(-n3cc(C(=O)O)cn3)nc(O)c21 [Example 288]
49 nM	530 nM	CCC(c1ccc(Cl)cc1F)n1ncc2nc(-n3cc(C(=O)O)cn3)nc(O)c21 (centres unmarked) [Example 350]
150 nM	830 nM	C[C@H](c1ccc(C(F)(F)F)cc1)n1ncc2nc(-n3cc(C(=O)O)cn3)nc(O)c21 [Example 284]
57 nM	470 nM	Cc1cc(C)cc(C(C)n2ncc3nc(-n4cc(C(=O)O)cn4)nc(O)c32)c1 (single isomer, unassigned) [Example 310]
12 nM	260 nM	C[C@@H](c1ccc(Cl)c(F)c1)n1ncc2nc(-n3cc(C(=O)O)cn3)nc(O)c21 [Example 271]
29 nM	360 nM	Cc1cccc([C@H](C)n2ncc3nc(-n4cc(C(=O)O)cn4)nc(O)c32)c1 [Example 262]
52 nM	890 nM	CCCC[C@H](C)n1ncc2nc(-n3cc(C(=O)O)cn3)nc(O)c21 [Example 497]
19 nM	420 nM	CCC(c1ccc(F)c(F)c1)n1ncc2nc(-n3cc(C(=O)O)cn3)nc(O)c21 (single isomer, unassigned) [Example 331]
120 nM	920 nM	C[C@@H](c1cc(C(F)(F)F)ccc1C(F)(F)F)n1ncc2nc(-n3cc(C(=O)O)cn3)nc(O)c21 [Example 275]
16 nM	290 nM	C[C@@H](c1ccc(OC(F)(F)F)c(Cl)c1)n1ncc2nc(-n3cc(C(=O)O)cn3)nc(O)c21 [Example 318]
46 nM	320 nM	CCC(c1cc(F)cc(F)c1)n1ncc2nc(-n3cc(C(=O)O)cn3)nc(O)c21 (single isomer, unassigned) [Example 333]
200 nM	870 nM	C[C@@H](c1ccccc1Cl)n1ncc2nc(-n3cc(C(=O)O)cn3)nc(O)c21 [Example 257]
36 nM	650 nM	O=C(O)c1cnn(-c2nc(O)c3c(cnn3C(c3cc(F)cc(F)c3)C3CC3)n2)c1 (single isomer, unassigned) [Example 373]
71 nM	600 nM	C[C@@H](c1cccc(Cl)c1)n1ncc2nc(-n3cc(C(=O)O)cn3)nc(O)c21 [Example 253]
67 nM	770 nM	Cc1ccc(Cl)cc1C(C)n1ncc2nc(-n3cc(C(=O)O)cn3)nc(O)c21 (centres unmarked) [Example 311]
38 nM	380 nM	C[C@@H](c1cc(F)cc(C(F)(F)F)c1)n1ncc2nc(-n3cc(C(=O)O)cn3)nc(O)c21 [Example 274]
